Results published in patent publication US6600012B1, “Lipid-modified muc-1 derivatives” (Biomira, Inc., priority 1997, dated 2003).

Assays:
[1] = target: T1, HLA.A2 on T2 mutant cells (Homo sapiens, UniProt P04439, D140Y/D185E/D98H/E176V/E277Q/G131W/G231S/I119V/I121R/I166T/I218V/L300P/L318F/N151K/N90K/P208A/P217A/Q86G/Q94H/R138H/R169H/T345S); assay: T2 feeding experiment and FACS analysis (HLA.A2 upregulation, MA2.1 staining), Example 2; type: cell-based
[2] = test system: T2 cells loaded with MUC-1 synthetic peptides; assay: Cytotoxic T lymphocyte assay (51Cr release) against peptide loaded T2 targets, Example 2; type: cell-based, human; details: T-cells of three HLA.A2+ donors primed with liposomal 25 aa MUC-1 lipopeptide, 5 h 51Cr release, peptide 200 μM
Method: Cytotoxic T lymphocyte assays. For the CTL assay, three (HLA.A2^+) normal donors' PBLs were used. The T-cells were grown for two weeks in bulk cultures as described above. At the end of two weeks, live T-cells were harvested from flasks and counted. T2 cells used as CTL targets were loaded overnight with various MUC-1 synthetic peptides at 200 μM in presence of exogenous β2m. Houbiers et al., Eur. J. Immunol 23:2072-2077 (1993); Stauss et al., Proc. Natl. Acad. Sci. U.S.A. 89:7871-7875 (1992). These peptide loaded T2 target cells were then loaded with ^51Cr (using NaCrO4) for 90 min and washed extensively. CTL assays were performed as previously described. Agrawal et al., supra. Percent specific killing was calculated as: experimental release—spontaneous release/maximum release—spontaneous release×100. The effector versus target ratio was used as (1, 10, 50, 100 and 150). Each group was set up in four replicate and mean percent specific killing was calculated. As negative control OVA peptide […] loaded target T2 cells were used in the cytotoxic assay and percent specific killing of […] loaded targets was subtracted from each data point to obtain MUC-1 peptide specific percent specific killing.
We performed in vitro CTL assays in order to determine whether the MUC-1 peptides shown to be capable of binding to HLA.A2 on T2 mutant cells can be recognized as CTL epitopes in the context of MHC class I HLA.A2 molecules on target cells. T-cells from PBLs of three HLA.A2^+ donors were primed in vitro against MUC-1 antigen using a lipopeptide derivative of 25 amino acid MUC-1 peptide encapsulated in liposome pulsed autologous PBLs as APCs. The stimulated T-cells were harvested following two weeks in vitro culture (with 2 weekly restimulations) and tested for their cytotoxic activity against MUC-1 derived synthetic peptide (9 mers and 7 mer) loaded T2 cells as target in a 5 h ^51Cr release assay (FIG. 6). […] The targets loaded with 7 mer TSA . . . peptide were weakly killed by donor 2 at higher E/T ratios.

[3] = target: T1, HLA.A2 on T2 mutant cells; assay: MUC-1 peptide-mediated upregulation of HLA.A2 expression on T2 cells, Example 1; type: cell-based; details: FIG. 6A
Description: FIG. 6A: Upregulation of HLA.A2 expression on T2 mutant cells by MUC-1 peptides […] (SEQ ID NO: 1) and […] (SEQ ID NO: 2). […] was used as a positive control (SEQ ID NO: 1) and H-2Kb (61-69) peptide (SEQ ID NO: 3) was used as negative control for HLA-A2 upregulation. The x-axis represents fluorescence intensity and the y-axis represents the cell number. Markers M1 and M2 were set to visually examine the increase expression of HLA.A2. Mean channel intensity (MCI) is shown in each histogram.
Cytotoxic T lymphocyte assays. For the CTL assay, three (HLA.A2^+) normal donors' PBLs were used. The T-cells were grown for two weeks in bulk cultures as described above. At the end of two weeks, live T-cells were harvested from flasks and counted. The targets were mutant T2 cells. Houbiers et al., Eur. J. Immunol 23:2072-2077 (1993); Stauss et al., Proc. Natl. Acad. Sci. U.S.A. 89:7871-7875 (1992). The MUC-1 peptide-mediated upregulation of HLA.A2 expression on T2 cells was examined using the MUC-1 nine-mer peptides (SEQ ID NO: 25) […] and […] using known methods. Townsend et al., Nature 346:476 (1989). […] Percent specific killing was calculated as: experimental release—spontaneous release/maximum release—spontaneous release×100. […] Each group was set up in four replicate and mean percent specific killing was calculated.

[4] = test system: T-cells from PBLs of normal donors; assay: T-cell proliferation assay (3H-Tdr incorporation) of T-cells stimulated twice with liposomal antigen loaded autologous APCs; type: cell-based, human; details: T-cells stimulated twice in two weeks with BLP-25 liposome loaded autologous PBLs; antigen presented on autologous APCs
Method: T-cell Culture in Bulk For T-cell enrichment, 30-50×10^6 PBLs were suspended in 1 mL AIM-V media and loaded on media pre-conditioned 5 mL nylon wool columns (Robins Scientific, Sunnyvale, Calif.). The loaded nylon wool columns were incubated at 37° C. for 45 minutes and then the non-adhering T-cells were eluted by washing with warm (37° C.) AIM-V media. Initially, the bulk culture was started in a 25 cm^2 tissue culture sterile flask (Corning Glass, Corning, N.Y.). 10^7 T-cells were cultured in the presence of 10^7 antigen loaded, gamma-irradiated autologous PBLs in a total volume of 10 mL in AIM-V media for 16-24 hours, at which time the culture was fed with human rIL-7 (10 μg/mL) and human rIL-12 (100 pg/ml), and left for 6-8 more days. At the end of the 7-10 days of culture, surviving t-cells were collected and re-stimulated with autologous APCs loaded with liposomal antigen. After two consecutive cycles of re-stimulation (14-16 days), the T-cells were collected, and counted. The supernatant was collected from bulk cultures at 14 days for cytokine screening and kept frozen at −80° C. until used for the assay. Repeated freeze/thaw was prevented. […] Incorporation of ^3H-Tdr into DNA of proliferating cells was measured after harvesting the plates and counting in the matrix beta counter. […]

[5] = test system: T cells stimulated with autologous PBLs loaded with liposomes containing BLP-25; assay: Cytokine ELISA of supernatant of microtiter wells in the proliferation assay; type: cell-based, human; details: soluble peptide, 100 ug; T cells pre-stimulated with BLP-25 liposomes 100 ug; 6th day of culture
Method: T-Cell Proliferation Assay T-cells (5×10^4-1×10^5) obtained at the end of 14-16 days of culture, as described above, were incubated in the presence of various antigen-containing liposomes, soluble BP24, soluble BLP-24M, loaded or unloaded autologous liposomes, and mitomycin C treated APCs (5×10^4-10^5), in a total volume of 200 μL in AIM-V medium, in 96-well flat-bottom tissue culture plates—for a period of 5 days at 37° C., 7% CO2 and moisture. Each group was cultured in 5 replicate wells. At the end of 5 days, 100 μL of culture supernatant was collected from each well and tested for the presence of γ-IFN or IL-4 by ELISA, as described below. After collecting the supernatant for cytokines, 1 μCi^3H-Tdr (Amersham Canada Limited, Oaksville, Ontario) was added into each well and incubated overnight. Incorporation of ^3H-Tdr into DNA of proliferating cells was measured after harvesting the plates and counting in the matrix beta counter. […]
For the γ-IFN assay, 96-well Nunc ELISA plates were coated overnight at 4° C. with mouse anti-human γ-IFN monoclonal antibody (Genzyme, Cambridge, Mass.) in NaHCO3 buffer (0.1 M, pH 9.5). […] At this time, the plates were read in the ELISA reader (Molecular Devices Corporation, Menlo Park, Calif.) in kinetic mode [Molecular Thermomax dual wavelength (405-490 nm)]. […]

MAb BCP8 = assay: Competitive inhibition of binding of MAb BCP8 to class I MHC isolated MUC-1 peptides (ELISA); details: synthetic peptide 0-10 μM; MCF-7 derived fraction (FIG. 9)
Method: Competitive inhibition of binding of MAb BCP8 to class I MHC isolated putative MUC-1 peptide motifs by synthetic MUC-1 peptides. To show the specificity of binding of the BCP8 antibody to the peptides isolated from MCF-7, a fraction eluting at 19 min after secondary HPLC was diluted ⅙ with PBS and coated on microtiter wells overnight, then blocked as described above. The wells were incubated with 2 ng of BCP8 in 100 μl ELISA diluent, containing also amounts of peptide varying from 0-10 μM. Peptides used in this experiment were the 9 mers (SEQ ID NO: 3), […] and […] (SEQ ID NO: 17), and the 16 mer (SEQ ID NO: 15) […]. The ELISA was then processed as described above.

For TSAPDTRPA [MUC-1 tandem repeat 9 mer], the “upregulation of class I expression on T2 cells” value ([1]; FIG. 11 and repeat experiments) was “strong upregulation of class I expression”, the “specific killing of T2 targets loaded with the peptide” value (shortened to “specific killing of T2 targets loaded”) [2] was “performed exceptionally well” and the “specific killing of T2 targets loaded” value ([2]; listed as 9 mers TSA . . .) was “specifically killed to the highest degree”.
SAPDTRPAP [MUC-1 tandem repeat 9 mer] was tested, and the “% Change in mean channel intensity” value ([1]; T2 cell assay, HLA.A2 expression (MA2.1 staining)) was 48% and the “specific killing of T2 targets loaded” value [2] was “specifically killed to the highest degree”.
For “SIINFEKL [8-mer ovalbumin (OVA) peptide, negative control in CTL assay, reference compound]”, the “upregulation of HLA.A2 expression on T2 cells” value [3] was “strongly upregulates HLA.A2 expression”.
With STAPPAHGV the “upregulation of HLA.A2 expression on T2 cells” value [3] was “higher upregulation of HLA.A2 expression on T2 cells than did”.
“TSAPDTR [MUC-1 7 mer, class I-associated peptide]” was tested, and the “δMCI, HLA.A2 expression on T2 cell surface” value ([1]; peptide in excess at 50 μM/well) was 2 and the “specific killing of T2 targets loaded” value [2] was “weakly killed”.
For “DSTSSPVHSGTSSPATSAPEDSTS [BP-24M, mouse MUC-1, 24-amino acid peptide, control]”, the “T-cell proliferative response against the test antigen” value [4] was “no proliferative T-cell response”, the “IFN-γ (pg/ml) ± S.D.” value [5] was 193 ± 79 pg/mL and the “IL-4 (pg/ml) ± S.D.” value [5] was under 31.00 pg/mL.
GVTSAPDTR [MUC-1 tandem repeat 9 mer] was tested, and the “inhibition of binding of BCP8 to the isolated MUC-1 peptides” value (MAb BCP8) was “did not inhibit binding”.
